Laboratory results: US12304932B2, “PACAP stabilized peptide” (SENJU PHARMACEUTICAL CO., LTD., priority 2017, dated 2025)
Values belong to the compound of their own block, whether it stands above or below them. Square brackets hold non-standard residues; d marks the D form. Peptide text beside a SMILES is read from it. * marks the point of attachment. Ala(1H-tetrazol-5-yl) = N[C@@H](Cc1nnn[nH]1)C(=O)O; Nle = CCCC[C@H](N)C(=O)O; Ms = CS(=O)(=O)*

How the values were obtained:
[1] = Peptide stability tests 2 and 3: Tris buffer pH 7.0, stored at 60° C., HPLC conditions 2; format: physicochemical; details: 100 μM peptide, Tris buffer pH 7.0, 60° C.
Method in brief: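 Survival rate, corrected for water, was quantified by reversed-phase C18 HPLC (220 nm; formic acid water/acetonitrile gradient; 40° C. column) against an initial unstored standard. Samples were 100 μM peptide in pH 7.0 Tris stored 1–2 weeks at 60° C.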

[2] = Peptide stability test 1: aqueous solution, phosphate buffer pH 7.0, stored at 40° C., HPLC conditions 1; format: physicochemical; details: phosphate buffer pH 7.0, 40° C.; for survival rate after correction for water, 40° C., 1-month storage / survival rate after correction for water, 40° C., 2-month storage: 100 μM peptide; for survival rate after correction for water, 40° C., 2-month storage: 2 months
Description: Peptides 1 and 3 to 5 synthesized in Example 2 were weighed and dissolved in phosphate buffer (pH 7.0) to prepare 1.0 mM peptide solutions. The 1.0 mM peptide solutions were then diluted with phosphate buffer to 100 μM. After filtering with. Chromatdisk (product of Merck Millipore, Millex-GV, 0.22 μm), each filtrate was dispensed into an LC vial (Waters Deactivated Qsert Vial). The prepared peptide solutions were incubated for one month or 2 months in a 40° C. thermostatic bath to obtain stored samples. A simultaneously prepared sample among the peptide solutions that was not stored was used as a standard sample (initial sample). The standard sample and the stored samples were stored at −30° C. until sample analysis.
Using the total weight of the aqueous peptide solution and storage vessel as the specimen weight, measurements were recorded as the specimen weights before storage and the specimen weights after storage under different storage conditions. The empty weight of the storage vessel was also measured, and the moisture permeability was determined by the following formula.
After stirring the standard sample and the stored samples on a vortex mixer, each peptide solution was transferred to an HPLC vial (Deactivated Qsert vial by Waters Co.). Reverse-phase HPLC (HPLC system: Prominence by Shimadzu Corp.) was conducted under the conditions shown in Table 3 below for analysis of the_peptide solutions, and chromatograms were obtained.
(§1) Column: XSelect CSH C18 by Waters Co., 5 μm, 4.6×250 mm
Guard column: XSelect CSH C18 by Waters. Co., 5 μm, 4.6×20 mm Guard Cartridge
(§2) Detection wavelength: 220 nm
(§3) Mobile phase A: 0.1% formic acid in water
(§4) Mobile phase B: 0.1% formic acid in acetonitrile
Measuring time: 30 minutes
Measuring sample injection rate: 50 μL
(§5) Column temperature: 40° C.
Mobile phase delivery: The mixing ratio of mobile phase A and mobile phase B was varied as shown in Table 3 for linear concentration gradient control.
The peak area value for the peptide in the chromatogram was calculated, and the survival rate (survival rate before correction for water) was calculated using formula (2). The survival rate after correction for water was also calculated from the survival rate before correction for water using formula (3), taking into account the moisture permeability of the container.

[3] = Peptide stability test 4: phosphate buffer pH 7.0, stored at 40° C.; format: physicochemical; details: phosphate buffer pH 7.0, 40° C.; for survival rate after correction for water, 40° C., 1-month storage / survival rate after correction for water, 40° C., 2-month storage: 100 μM peptide; for survival rate after correction for water, 40° C., 2-month storage: 2 months
Description: Peptides 10 and 11 synthesized in Example 2 were weighed and dissolved in phosphate buffer (pH 7.0) to prepare 1.0 mM peptide solutions. The solutions were filtered with a Chromatdisk (product of Merck Millipore, Millex-GV, 0.22 Each filtrate was diluted to 100 μM with phosphate buffer (pH 7.0) and dispensed into a tube (Protein LoBind Tube by Eppendorf Co.). The prepared peptides were incubated for one month or 2 months in a 40° C. thermostatic bath to obtain stored samples. A simultaneously prepared sample among the peptide solutions that was not stored was used as a standard sample (initial sample). The standard sample and the stored samples were stored at −30° C. until sample analysis.
The survival rate after correction for water for each peptide among the stored samples was measured in the same manner as Example 4, and the results are shown in Table 8.

[4] = Peptide stability test 5: Tris buffer pH 7.0, stored at 60° C., HPLC conditions 3; format: physicochemical; details: 100 μM peptide, Tris buffer pH 7.0, 60° C.
Description: Peptide 26 synthesized in Example 2 was weighed and dissolved in Tris buffer (pH 7.0) to prepare 1.0 mM peptide solutions. Each solution was filtered with a Chromatdisk (product of Merck Millipore, Millex-GV, 0.22 μm). The filtrate was diluted to 100 μM with Tris buffer (pH 7.0) and dispensed into a tube (Protein LoBind Tube by Eppendorf Co.). The prepared peptide solutions were incubated for one week or 2 weeks in a 60° C. thermostatic bath to obtain stored samples. A simultaneously prepared sample among the peptide solutions that was not stored was used as a standard sample (initial sample). The standard sample and the stored samples were stored at −30° C. until sample analysis.
The stored sample was measured under the following HPLC analysis conditions 3, and the survival rate alter correction for water for the peptide among the stored samples was calculated in the same manner as Example 3.
as §1
Guard column: XSelect CSH C18 by Waters Co., 5 4.6×20 mm Guard Cartridge
as §2, §3, §4
Measuring time: 20 minutes
Measuring sample injection volume: 50 μL
as §5
Mobile phase delivery: The mixing ratio of mobile phase A and mobile phase B was varied as shown in Table 9 for linear concentration gradient control.

[5] = biological target: T1, PAC1 receptor (PAC1R) (Homo sapiens, UniProt P41586); details: background statement; cited from earlier work
T1 sequence (P41586 21-468): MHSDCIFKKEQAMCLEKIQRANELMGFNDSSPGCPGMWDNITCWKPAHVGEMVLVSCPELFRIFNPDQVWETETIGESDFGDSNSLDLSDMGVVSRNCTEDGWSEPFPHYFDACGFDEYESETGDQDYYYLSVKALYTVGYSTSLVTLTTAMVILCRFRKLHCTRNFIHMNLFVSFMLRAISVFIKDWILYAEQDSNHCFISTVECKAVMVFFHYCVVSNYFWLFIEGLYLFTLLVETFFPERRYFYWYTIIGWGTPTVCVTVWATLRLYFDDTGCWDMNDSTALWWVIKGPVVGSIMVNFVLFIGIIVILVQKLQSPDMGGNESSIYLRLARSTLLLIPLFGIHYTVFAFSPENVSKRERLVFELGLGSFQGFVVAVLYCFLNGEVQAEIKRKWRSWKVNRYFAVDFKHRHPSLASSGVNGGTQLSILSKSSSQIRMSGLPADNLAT

Compound: CC[C@H](C)[C@H](NC(=O)CNC(=O)[C@H](CC(=O)O)NC(=O)[C@H](CO)NC(=O)[C@@H](N)Cc1c[nH]cn1)C(=O)N[C@@H](Cc1ccccc1)C(=O)N[C@H](C(=O)N[C@@H](CC(=O)O)C(=O)N[C@@H](CO)C(=O)N[C@@H](Cc1ccc(O)cc1)C(=O)N[C@@H](CO)C(=O)N[C@@H](CCCNC(=N)N)C(=O)N[C@@H](Cc1ccc(O)cc1)C(=O)N[C@@H](CCCNC(=N)N)C(=O)N[C@@H](CCCCN)C(=O)N[C@@H](CCC(N)=O)C(=O)N[C@@H](CCSC)C(=O)N[C@@H](C)C(=O)N[C@H](C(=O)N[C@@H](CCCCN)C(=O)N[C@@H](CCCCN)C(=O)N[C@@H](Cc1ccc(O)cc1)C(=O)N[C@@H](CC(C)C)C(=O)N[C@@H](C)C(=O)N[C@@H](C)C(=O)N[C@H](C(=O)N[C@@H](CC(C)C)C(N)=O)C(C)C)C(C)C)[C@@H](C)O [Peptide 1, reference compound]
survival rate after correction for water, 60° C., 1-week storage ([1]; 1 week): 26.6%
survival rate after correction for water, 60° C., 2-week storage ([1]; 2 weeks): 15.8%
survival rate after correction for water, 40° C., 1-month storage [2]: 37.4%
survival rate after correction for water, 40° C., 2-month storage [2]: 21.3%

Compound: CC[C@H](C)[C@H](NC(=O)CNC(=O)[C@H](Cc1nnn[nH]1)NC(=O)[C@H](CO)NC(=O)[C@@H](N)Cc1c[nH]cn1)C(=O)N[C@@H](Cc1ccccc1)C(=O)N[C@H](C(=O)N[C@@H](Cc1nnn[nH]1)C(=O)N[C@@H](CO)C(=O)N[C@@H](Cc1ccc(O)cc1)C(=O)N[C@@H](CO)C(=O)N[C@@H](CCCNC(=N)N)C(=O)N[C@@H](Cc1ccc(O)cc1)C(=O)N[C@@H](CCCNC(=N)N)C(=O)N[C@@H](CCCCN)C(=O)N[C@@H](CCC(N)=O)C(=O)N[C@@H](CCSC)C(=O)N[C@@H](C)C(=O)N[C@H](C(=O)N[C@@H](CCCCN)C(=O)N[C@@H](CCCCN)C(=O)N[C@@H](Cc1ccc(O)cc1)C(=O)N[C@@H](CC(C)C)C(=O)N[C@@H](C)C(=O)N[C@@H](C)C(=O)N[C@H](C(=O)N[C@@H](CC(C)C)C(N)=O)C(C)C)C(C)C)[C@@H](C)O [Peptide 5] (H-HS[Ala(1H-tetrazol-5-yl)]GIFT[Ala(1H-tetrazol-5-yl)]SYSRYRKQMAVKKYLAAVL-NH2)
survival rate after correction for water, 40° C., 1-month storage [2]: 94.7%
survival rate after correction for water, 40° C., 2-month storage [2]: 85.6%
stability in aqueous solution, in words [2]: further increased stability over peptide 3 and peptide 4

stability in aqueous solution, in words [3]: stabilized to the same degree
Compound: CC[C@H](C)[C@H](NC(=O)CNC(=O)[C@H](Cc1nnn[nH]1)NC(=O)[C@H](CO)NC(=O)[C@H](Cc1c[nH]cn1)NC(C)=O)C(=O)N[C@@H](Cc1ccccc1)C(=O)N[C@H](C(=O)N[C@@H](Cc1nnn[nH]1)C(=O)N[C@@H](CO)C(=O)N[C@@H](Cc1ccc(O)cc1)C(=O)N[C@@H](CO)C(=O)N[C@@H](CCCNC(=N)N)C(=O)N[C@@H](Cc1ccc(O)cc1)C(=O)N[C@@H](CCCNC(=N)N)C(=O)N[C@@H](CCCCN)C(=O)N[C@@H](CCC(N)=O)C(=O)N[C@@H](CCSC)C(=O)N[C@@H](C)C(=O)N[C@H](C(=O)N[C@@H](CCCCN)C(=O)N[C@@H](CCCCN)C(=O)N[C@@H](Cc1ccc(O)cc1)C(=O)N[C@@H](CC(C)C)C(=O)N[C@@H](C)C(=O)N[C@@H](C)C(=O)N[C@H](C(=O)N[C@@H](CC(C)C)C(N)=O)C(C)C)C(C)C)[C@@H](C)O [Peptide 10] (Ac-HS[Ala(1H-tetrazol-5-yl)]GIFT[Ala(1H-tetrazol-5-yl)]SYSRYRKQMAVKKYLAAVL-NH2)
survival rate after correction for water, 40° C., 1-month storage [3]: 94.0%
survival rate after correction for water, 40° C., 2-month storage [3]: 87.8%

stability in aqueous solution, in words [3]: stabilized to the same degree
Compound: CCCC[C@H](NC(=O)[C@H](CCC(N)=O)NC(=O)[C@H](CCCCN)NC(=O)[C@H](CCCNC(=N)N)NC(=O)[C@H](Cc1ccc(O)cc1)NC(=O)[C@H](CCCNC(=N)N)NC(=O)[C@H](CO)NC(=O)[C@H](Cc1ccc(O)cc1)NC(=O)[C@H](CO)NC(=O)[C@H](Cc1nnn[nH]1)NC(=O)[C@@H](NC(=O)[C@H](Cc1ccccc1)NC(=O)[C@@H](NC(=O)CNC(=O)[C@H](Cc1nnn[nH]1)NC(=O)[C@H](CO)NC(=O)[C@H](Cc1c[nH]cn1)NS(C)(=O)=O)[C@@H](C)CC)[C@@H](C)O)C(=O)N[C@@H](C)C(=O)N[C@H](C(=O)N[C@@H](CCCCN)C(=O)N[C@@H](CCCCN)C(=O)N[C@@H](Cc1ccc(O)cc1)C(=O)N[C@@H](CC(C)C)C(=O)N[C@@H](C)C(=O)N[C@@H](C)C(=O)N[C@H](C(=O)N[C@@H](CC(C)C)C(N)=O)C(C)C)C(C)C [Peptide 11] (Ms-HS[Ala(1H-tetrazol-5-yl)]GIFT[Ala(1H-tetrazol-5-yl)]SYSRYRKQ[Nle]AVKKYLAAVL-NH2)
survival rate after correction for water, 40° C., 1-month storage [3]: 94.2%
survival rate after correction for water, 40° C., 2-month storage [3]: 88.8%

Compound: CC[C@H](C)[C@H](NC(=O)CNC(=O)[C@H](Cc1nnn[nH]1)NC(=O)[C@H](CO)NC(=O)[C@H](Cc1c[nH]cn1)NC(C)=O)C(=O)N[C@@H](Cc1ccccc1)C(=O)N[C@H](C(=O)N[C@@H](Cc1nnn[nH]1)C(=O)N[C@@H](C)C(=O)N[C@@H](Cc1ccc(O)cc1)C(=O)N[C@@H](CO)C(=O)N[C@@H](CCCNC(=N)N)C(=O)N[C@@H](Cc1ccc(O)cc1)C(=O)N[C@@H](CCCNC(=N)N)C(=O)N[C@@H](CCCCN)C(=O)N[C@@H](C)C(=O)N[C@@H](CC(C)C)C(=O)N[C@@H](C)C(=O)N[C@H](C(=O)N[C@@H](CCCCN)C(=O)N[C@@H](CCCCN)C(=O)N[C@@H](Cc1ccc(O)cc1)C(=O)N[C@@H](CC(C)C)C(=O)N[C@@H](C)C(=O)N[C@@H](C)C(=O)N[C@H](C(=O)N[C@@H](CC(C)C)C(N)=O)C(C)C)C(C)C)[C@@H](C)O [Peptide 26] (Ac-HS[Ala(1H-tetrazol-5-yl)]GIFT[Ala(1H-tetrazol-5-yl)]AYSRYRKALAVKKYLAAVL-NH2)
survival rate after correction for water, 60° C., 1-week storage ([4]; 1 week): 98.0%
survival rate after correction for water, 60° C., 2-week storage ([4]; 2 weeks): 94.8%

Compound: Pituitary adenylate cyclase-activating polypeptide [PACAP]
affinity of PAC1R for PACAP relative to its affinity for VIP [5]: more than 1000 times
